The values that follow come from patent publication US20250122190A1, “HALOGEN-SUBSTITUTED PYRIDAZINONE COMPOUND AND APPLICATION THEREOF” (MEDSHINE DISCOVERY INC., priority 2021, published 2025).

This assay concerns rat models of hypertensive renal disease. The assay can be described thus: Pharmacodynamic study in DOCA-NaCl induced hypertensive renal disease model. It is filed as in vivo, male SD rats. An excerpt: PD and pharmacodynamic studies on the compounds of the present disclosure in male SD rat models of hypertension induced with deoxycorticosterone acetate-sodium chloride (DOCA-NaCl).
Prior to commencing the procedure, 7-8 weeks old male SD rats were allowed one week acclimatization. On the day of surgery, the table of the surgical area was disinfected with a disinfectant, and the rats were anesthetized with 2%-5% isoflurane and fixed on the table. The abdominal hair was removed and the surgical skin was disinfected. The skin and abdominal wall were cut open to expose the right kidney. The arteries and veins near the renal hilum were ligated. After it was confirmed that there were no bleeding points, the renal blood vessels and surrounding ligaments were bluntly separated and the right kidney was removed. After it was confirmed that there were no bleeding points, the abdominal wall muscle and skin were sutured. After the rats woke up, they were returned to the cage and observed. The rats were injected subcutaneously with meloxicam injection once a day for 3 consecutive days for pain relief.
One week after unilateral kidney removal, the animals were randomly divided into vehicle group, low dose group and high dose group according to body weight/blood pressure. The drinking water of animals in all groups was changed to an aqueous solution containing 1% sodium chloride+0.2% potassium chloride. […]

With `O=c1[nH]ncc(N2CCc3c(ncnc3Sc3ccc(F)cc3C(F)(F)F)C2)c1Cl` [Compound WX002], under “30 mg/kg and 60 mg/kg intragastrically once a day for 28 days, vs vehicle control group”, the urinary albumin level result was “significantly reduce”. The “expression of urinary Rac1” value (low and high dose, intragastrically once a day for 28 days, vs vehicle group) is listed as “dose-dependently reduce”.
